Laboratory results: the NIST ThermoML archive (doi:10.1016/j.jct.2013.01.019)
Numbers after ± are expanded uncertainties.

Experiments:
[1] = Molar enthalpy of transition or fusion; details: Crystal; DSC
[2] = Crystal; DTA

Row | Molar enthalpy of transition or fusion [1] | Normal melting temperature [2] | SMILES
1 | 9.33 ± 0.263 kcal/mol | 24.00 ± 0.53 °C | CCCCCCCCCCCCO [dodecan-1-ol]
2 | 14.7 ± 0.406 kcal/mol | 27.80 ± 0.53 °C | CCCCCCCCCCCCCCCCCC [octadecane]
